Consider 14 compounds from patent US8802661B2, “C-28 amides of modified C-3 betulinic acid derivatives as HIV maturation inhibitors” (priority 2010, dated 2014).

Structures are written as SMILES. Bounds are passed on as bounds.

The subject of one assay is recombinant NL4-3 virus (Renilla luciferase in nef, Gag P373S). Description: HIV Cell Culture Assay (luciferase reporter virus in MT-2 cells). The format is cell-based. The settings on record: NL43. The method, then: MT-2 cells and 293T cells were obtained from the NIH AIDS Research and Reference Reagent Program. MT-2 cells were propagated in RPMI 1640 media supplemented with 10% heat inactivated fetal bovine serum, […]. The 293T cells were propagated in DMEM media supplemented with 10% heat inactivated fetal bovine serum (FBS), 100 units/ml penicillin G and 100 μg/ml streptomycin. The proviral DNA clone of NL4-3 was obtained from the NIH AIDS Research and Reference Reagent Program. A recombinant NL4-3 virus, in which a section of the nef gene from NL4-3 was replaced with the Renilla luciferase gene, was used as a reference virus. In addition, residue Gag P373 was converted to P373S. Briefly, the recombinant virus was prepared by transfection of the altered proviral clone of NL4-3. Transfections were performed in 293T cells using LipofectAMINE PLUS from Invitrogen (Carlsbad, Calif.), according to manufacturer's instruction. The virus was titered in MT-2 cells using luciferase enzyme activity as a marker. Luciferase was quantitated using the Dual Luciferase kit from Promega (Madison, Wis.), with modifications to the manufacturer's protocol. The diluted Passive Lysis solution was pre-mixed with the re-suspended Luciferase Assay Reagent and the re-suspended Stop & Glo Substrate (2:1:1 ratio). Fifty (50) μL of the mixture was added to each aspirated well on assay plates and luciferase activity was measured immediately on a Wallac TriLux (Perkin-Elmer). Antiviral activities of inhibitors toward the recombinant virus were quantified by measuring luciferase activity in cells infected for 4-5 days with NLRluc recombinants in the presence serial dilutions of the inhibitor. Table 1 is the key for the data in Table 2.
With `C=C(C)[C@@H]1CC[C@]2(C(=O)NCc3ccc(Cl)cc3)CC[C@]3(C)[C@H](CC[C@@H]4[C@@]5(C)CC=C(c6ccc(C(=O)O)cc6)C(C)(C)[C@@H]5CC[C@]43C)[C@@H]12` [Example 60, 4-((1R,3aS,5aR,5bR,7aR,11aS,11bR,13aR,13bR)-3a-(4-chlorobenzylcarbamoyl)-5a,5b,8,8,11a-pentamethyl-1-(prop-1-en-2-yl)-2,3,3a,4,5,5a,5b,6,7,7a,8,11,11a,11b,12,13,13a,13b-octadecahydro-1H-cyclopenta[a]chrysen-9-yl)benzoic acid], the EC50 was 48 nM. In the case of `C=C(C)[C@@H]1CC[C@]2(C(=O)N3CCCCC3)CC[C@]3(C)[C@H](CC[C@@H]4[C@@]5(C)CC=C(c6ccc(C(=O)O)cc6)C(C)(C)[C@@H]5CC[C@]43C)[C@@H]12` [Example 19, 4-((1R,3aS,5aR,5bR,7aR,11aS,11bR,13aR,13bR)-5a,5b,8,8,11a-pentamethyl-3a-(piperidine-1-carbonyl)-1-(prop-1-en-2-yl)-2,3,3a,4,5,5a,5b,6,7,7a,8,11,11a,11b,12,13,13a,13b-octadecahydro-1H-cyclopenta[a]chrysen-9-yl)benzoic acid], the half-maximal effective concentration (EC50) was 370 nM.

Staying with this assay, now noted: NL43, read-out: EC50 Group.
With `C=C(C)[C@@H]1CC[C@]2(C(=O)NCCN(C)C)CC[C@]3(C)[C@H](CC[C@@H]4[C@@]5(C)CC=C(c6ccc(C(=O)O)c(F)c6)C(C)(C)[C@@H]5CC[C@]43C)[C@@H]12` [Example 104, 4-((1R,3aS,5aR,5bR,7aR,11aS,11bR,13aR,13bR)-3a-(2-(dimethylamino)ethylcarbamoyl)-5a,5b,8,8,11a-pentamethyl-1-(prop-1-en-2-yl)-2,3,3a,4,5,5a,5b,6,7,7a,8,11,11a,11b,12,13,13a,13b-octadecahydro-1H-cyclopenta[a]chrysen-9-yl)-2-fluorobenzoic acid], the EC50 is < 100 nM. `C=C(C)[C@@H]1CC[C@]2(C(=O)NCCN(CC)CC)CC[C@]3(C)[C@H](CC[C@@H]4[C@@]5(C)CC=C(c6ccc(C(=O)O)cc6)C(C)(C)[C@@H]5CC[C@]43C)[C@@H]12` [Example 70, 4-((1R,3aS,5aR,5bR,7aR,11aS,11bR,13aR,13bR)-3a-(2-(diethylamino)ethylcarbamoyl)-5a,5b,8,8,11a-pentamethyl-1-(prop-1-en-2-yl)-2,3,3a,4,5,5a,5b,6,7,7a,8,11,11a,11b,12,13,13a,13b-octadecahydro-1H-cyclopenta[a]chrysen-9-yl)benzoic acid]: the EC50 is < 100 nM.

On to `C[C@H]1[C@H](C)CC[C@]2(C(=O)NCCCN3CCS(=O)(=O)CC3)CC[C@]3(C)C(=CC[C@@H]4[C@@]5(C)CC=C(c6ccc(C(=O)O)cc6)C(C)(C)[C@@H]5CC[C@]43C)[C@H]12` [Example A2, 4-((4aR,6aR,6bS,8aS,11R,12S,12aS,14aR,14bS)-8a-((3-(1,1-dioxido-4-thiomorpholinyl)propyl)carbamoyl)-4,4,6a,6b,11,12,14b-heptamethyl-1,4,4a,5,6,6a,6b,7,8,8a,9,10,11,12,12a,14,14a,14b-octadecahydro-3-picenyl)benzoic acid], for which the EC50 is < 100 nM. The same measure, in the same setting: with `C=C(C)[C@@H]1CC[C@]2(C(=O)NCCNCCO)CC[C@]3(C)[C@H](CC[C@@H]4[C@@]5(C)CC=C(c6ccc(C(=O)O)cc6)C(C)(C)[C@@H]5CC[C@]43C)[C@@H]12` [Example 74, 4-((1R,3aS,5aR,5bR,7aR,11aS,11bR,13aR,13bR)-3a-(2-(2-hydroxyethylamino)ethylcarbamoyl)-5a,5b,8,8,11a-pentamethyl-1-(prop-1-en-2-yl)-2,3,3a,4,5,5a,5b,6,7,7a,8,11,11a,11b,12,13,13a,13b-octadecahydro-1H-cyclopenta[a]chrysen-9-yl)benzoic acid] the figure was < 100 nM; with `C=C(C)[C@@H]1CC[C@]2(C(=O)NC)CC[C@]3(C)[C@H](CC[C@@H]4[C@@]5(C)CC=C(c6ccc(C(=O)O)cc6)C(C)(C)[C@@H]5CC[C@]43C)[C@@H]12` [Example 26, 4-((1R,3aS,5aR,5bR,7aR,11aS,11bR,13aR,13bR)-5a,5b,8,8,11a-pentamethyl-3a-(methylcarbamoyl)-1-(prop-1-en-2-yl)-2,3,3a,4,5,5a,5b,6,7,7a,8,11,11a,11b,12,13,13a,13b-octadecahydro-1H-cyclopenta[a]chrysen-9-yl)benzoic acid], < 100 nM. Turning to `C=C(C)[C@@H]1CC[C@]2(C(=O)NCCc3ccccn3)CC[C@]3(C)[C@H](CC[C@@H]4[C@@]5(C)CC=C(c6ccc(C(=O)OC)cc6)C(C)(C)[C@@H]5CC[C@]43C)[C@@H]12` [Example 20, methyl 4-((1R,3aS,5aR,5bR,7aR,11aS,11bR,13aR,13bR)-5a,5b,8,8,11a-pentamethyl-1-(prop-1-en-2-yl)-3a-(2-(pyridin-2-yl)ethylcarbamoyl)-2,3,3a,4,5,5a,5b,6,7,7a,8,11,11a,11b,12,13,13a,13b-octadecahydro-1H-cyclopenta[a]chrysen-9-yl)benzoate], the EC50 is > 100 nM. As to `C=C(C)[C@@H]1CC[C@]2(C(=O)NCCNCCC(=O)O)CC[C@]3(C)[C@H](CC[C@@H]4[C@@]5(C)CC=C(c6ccc(C(=O)O)cc6)C(C)(C)[C@@H]5CC[C@]43C)[C@@H]12` [Example 91, 4-((1R,3aS,5aR,5bR,7aR,11aS,11bR,13aR,13bR)-3a-(2-(2-carboxyethylamino)ethylcarbamoyl)-5a,5b,8,8,11a-pentamethyl-1-(prop-1-en-2-yl)-2,3,3a,4,5,5a,5b,6,7,7a,8,11,11a,11b,12,13,13a,13b-octadecahydro-1H-cyclopenta[a]chrysen-9-yl)benzoic acid], the concentration giving a half-maximal response (EC50) is < 100 nM.

On to `C=C(C)[C@@H]1CC[C@]2(C(=O)N3CCC(O)CC3)CC[C@]3(C)[C@H](CC[C@@H]4[C@@]5(C)CC=C(c6ccc(C(=O)OC)cc6)C(C)(C)[C@@H]5CC[C@]43C)[C@@H]12` [Example 21, methyl 4-((1R,3aS,5aR,5bR,7aR,11aS,11bR,13aR,13bR)-3a-(4-hydroxypiperidine-1-carbonyl)-5a,5b,8,8,11a-pentamethyl-1-(prop-1-en-2-yl)-2,3,3a,4,5,5a,5b,6,7,7a,8,11,11a,11b,12,13,13a,13b-octadecahydro-1H-cyclopenta[a]chrysen-9-yl)benzoate], for which the EC50 was > 100 nM. In the case of `C=C(C)[C@@H]1CC[C@]2(C(=O)NCCN3CCC(F)(F)CC3)CC[C@]3(C)[C@H](CC[C@@H]4[C@@]5(C)CC=C(c6ccc(C(=O)O)cc6F)C(C)(C)[C@@H]5CC[C@]43C)[C@@H]12` [Example 119, 4-((1R,3aS,5aR,5bR,7aR,11aS,11bR,13aR,13bR)-3a-(2-(4,4-difluoropiperidin-1-yl)ethylcarbamoyl)-5a,5b,8,8,11a-pentamethyl-1-(prop-1-en-2-yl)-2,3,3a,4,5,5a,5b,6,7,7a,8,11,11a,11b,12,13,13a,13b-octadecahydro-1H-cyclopenta[a]chrysen-9-yl)-3-fluorobenzoic acid], the EC50 was < 100 nM. The same measure, in the same setting: with `C=C(C)[C@@H]1CC[C@]2(C(=O)NCCCN(C)C(C)=O)CC[C@]3(C)[C@H](CC[C@@H]4[C@@]5(C)CC=C(c6ccc(C(=O)O)cc6)C(C)(C)[C@@H]5CC[C@]43C)[C@@H]12` [Example 52, 4-((1R,3aS,5aR,5bR,7aR,11aS,11bR,13aR,13bR)-5a,5b,8,8,11a-pentamethyl-3a-(3-(N-methylacetamido)propylcarbamoyl)-1-(prop-1-en-2-yl)-2,3,3a,4,5,5a,5b,6,7,7a,8,11,11a,11b,12,13,13a,13b-octadecahydro-1H-cyclopenta[a]chrysen-9-yl)benzoic acid] the figure was < 100 nM; with `C=C(C)[C@@H]1CC[C@]2(C(=O)N[C@@H](Cc3ccccc3)C(=O)O)CC[C@]3(C)[C@H](CC[C@@H]4[C@@]5(C)CC=C(c6ccc(C(=O)O)cc6)C(C)(C)[C@@H]5CC[C@]43C)[C@@H]12` [Example 58, 4-((1R,3aS,5aR,5bR,7aR,11aS,11bR,13aR,13bR)-3a-((S)-1-carboxy-2-phenylethylcarbamoyl)-5a,5b,8,8,11a-pentamethyl-1-(prop-1-en-2-yl)-2,3,3a,4,5,5a,5b,6,7,7a,8,11,11a,11b,12,13,13a,13b-octadecahydro-1H-cyclopenta[a]chrysen-9-yl)benzoic acid], < 100 nM. As for `C=C(C)[C@@H]1CC[C@]2(C(=O)NCC(N)=O)CC[C@]3(C)[C@H](CC[C@@H]4[C@@]5(C)CC=C(c6ccc(C(=O)O)cc6)C(C)(C)[C@@H]5CC[C@]43C)[C@@H]12` [Example 34, 4-((1R,3aS,5aR,5bR,7aR,11aS,11bR,13aR,13bR)-3a-(2-amino-2-oxoethylcarbamoyl)-5a,5b,8,8,11a-pentamethyl-1-(prop-1-en-2-yl)-2,3,3a,4,5,5a,5b,6,7,7a,8,11,11a,11b,12,13,13a,13b-octadecahydro-1H-cyclopenta[a]chrysen-9-yl)benzoic acid], the EC50 was < 100 nM.
